According to paper PMC6677754, “In silico design and optimization of selective membranolytic anticancer peptides” (Scientific Reports, 2019):
Peptide text beside a SMILES is read from it.

Key:
Assay in all cases: NCI-60 screening
Format in all cases: cell-based, human
NCI-H322M = NCI-H322M (Lung); log GI50; 48 h, sulforhodamine B, 10^-4 to 10^-8 M
Method: (§1) NCI-60 screening procedure
(§2) The NCI-60 screening procedure was performed by the Developmental Therapeutics Program of the National Cancer Institute. The procedure was performed as previously described24 in 96-well microtiter plates. Each peptide was tested in a 5-concentration assay, starting at 10^-4 M and diluting 10-fold to the lowest 10^-8 M concentration. The peptides were incubated for 48 h and the cell concentration was assayed by using the sulforhodamine B assay25 and optical density measurements. The growth inhibition (GI50) value24, measures the growth inhibitory power of the drug agent. The GI50 value is the concentration of the test drug for which the condition in Eq. S1 is met, where T is the optical density of the test well after a 48-h exposure to the peptide, T0 the optical density before applying the peptide drug and C the control optical density of a well where no peptide was applied.

IGVROV1 = IGVROV1 (Ovarian); log GI50; 48 h, sulforhodamine B, 10^-4 to 10^-8 M
Method: as §1, §2

ACHN = ACHN (Renal); log GI50; 48 h, sulforhodamine B, 10^-4 to 10^-8 M
Method: as §1, §2

M14 = M14 (Melanoma); log GI50; 48 h, sulforhodamine B, 10^-4 to 10^-8 M
Method: as §1, §2

UACC-257 = UACC-257 (Melanoma); log GI50; 48 h, sulforhodamine B, 10^-4 to 10^-8 M
Method: as §1, §2

SK-MEL-2 = SK-MEL-2 (Melanoma); log GI50; 48 h, sulforhodamine B, 10^-4 to 10^-8 M
Method: as §1, §2

SW-620 = SW-620 (Colon); log GI50; 48 h, sulforhodamine B, 10^-4 to 10^-8 M
Method: as §1, §2

SF-268 = SF-268 (CNS); log GI50; 48 h, sulforhodamine B, 10^-4 to 10^-8 M
Method: as §1, §2

MDA-MB-231/ATCC = MDA-MB-231/ATCC (Breast); log GI50; 48 h, sulforhodamine B, 10^-4 to 10^-8 M
Method: as §1, §2

SN12C = SN12C (Renal); log GI50; 48 h, sulforhodamine B, 10^-4 to 10^-8 M
Method: as §1, §2

UACC-62 = UACC-62 (Melanoma); log GI50; 48 h, sulforhodamine B, 10^-4 to 10^-8 M
Method: as §1, §2

OVCAR-3 = OVCAR-3 (Ovarian); log GI50; 48 h, sulforhodamine B, 10^-4 to 10^-8 M
Method: as §1, §2

NCI-H522 = NCI-H522 (Lung); log GI50; 48 h, sulforhodamine B, 10^-4 to 10^-8 M
Method: as §1, §2

EKVX = EKVX (Lung); log GI50; 48 h, sulforhodamine B, 10^-4 to 10^-8 M
Method: as §1, §2

MDA-MB-435 = MDA-MB-435 (Melanoma); log GI50; 48 h, sulforhodamine B, 10^-4 to 10^-8 M
Method: as §1, §2

NCI/ADR-RES = NCI/ADR-RES (Ovarian); log GI50; 48 h, sulforhodamine B, 10^-4 to 10^-8 M
Method: as §1, §2

NCI-H460 = NCI-H460 (Lung); log GI50; 48 h, sulforhodamine B, 10^-4 to 10^-8 M
Method: as §1, §2

CCRF-CEM = CCRF-CEM (Leukemia); log GI50; 48 h, sulforhodamine B, 10^-4 to 10^-8 M
Method: as §1, §2

RPMI-8226 = RPMI-8226 (Leukemia); log GI50; 48 h, sulforhodamine B, 10^-4 to 10^-8 M
Method: as §1, §2

K-562 = K-562 (Leukemia); log GI50; 48 h, sulforhodamine B, 10^-4 to 10^-8 M
Method: as §1, §2

DU-145 = DU-145 (Prostate); log GI50; 48 h, sulforhodamine B, 10^-4 to 10^-8 M
Method: as §1, §2

SK-MEL-5 = SK-MEL-5 (Melanoma); log GI50; 48 h, sulforhodamine B, 10^-4 to 10^-8 M
Method: as §1, §2

SF-539 = SF-539 (CNS); log GI50; 48 h, sulforhodamine B, 10^-4 to 10^-8 M
Method: as §1, §2

HS-578T = HS-578T (Breast); log GI50; 48 h, sulforhodamine B, 10^-4 to 10^-8 M
Method: as §1, §2

HOP-92 = HOP-92 (Lung); log GI50; 48 h, sulforhodamine B, 10^-4 to 10^-8 M
Method: as §1, §2

T-47D = T-47D (Breast); log GI50; 48 h, sulforhodamine B, 10^-4 to 10^-8 M
Method: as §1, §2

Compound	Log GI (M) (NCI-H322M)	Log GI (M) (IGVROV1)	Log GI (M) (ACHN)	Log GI (M) (M14)	Log GI (M) (UACC-257)	Log GI (M) (SK-MEL-2)	Log GI (M) (SW-620)	Log GI (M) (SF-268)	Log GI (M) (MDA-MB-231/ATCC)	Log GI (M) (SN12C)	Log GI (M) (UACC-62)	Log GI (M) (OVCAR-3)	Log GI (M) (NCI-H522)	Log GI (M) (EKVX)	Log GI (M) (MDA-MB-435)	Log GI (M) (NCI/ADR-RES)	Log GI (M) (NCI-H460)	Log GI (M) (CCRF-CEM)	Log GI (M) (RPMI-8226)	Log GI (M) (K-562)	further results
CC[C@H](C)[C@H](NC(=O)[C@H](CCCNC(=N)N)NC(=O)[C@H](Cc1c[nH]c2ccccc12)NC(=O)[C@@H](NC(=O)[C@H](CCCCN)NC(=O)[C@H](CCCCN)NC(=O)[C@@H](NC(=O)[C@@H](NC(=O)[C@@H](NC(=O)[C@H](CCCCN)NC(=O)[C@H](Cc1ccccc1)NC(=O)[C@H](CCCCN)NC(=O)[C@H](CCCCN)NC(=O)[C@H](Cc1ccccc1)NC(=O)[C@@H](NC(=O)[C@@H](N)CCCCN)[C@@H](C)CC)[C@@H](C)O)[C@@H](C)CC)[C@@H](C)CC)C(C)C)C(=O)N[C@@H](Cc1ccccc1)C(=O)NCC(=O)N[C@@H](CCCNC(=N)N)C(=O)N[C@@H](Cc1ccccc1)C(N)=O [AmphiArc2] (H-KIFKKFKTIIKKVWRIFGRF-NH2)	-5.73 M	-5.68 M	-5.71 M	-5.62 M	-5.54 M	-5.58 M	-5.59 M	-5.68 M	-5.72 M	-5.69 M	-5.69 M	-5.67 M	-5.63 M	-5.73 M	-5.63 M	-5.53 M	-5.62 M	-5.60 M	-5.51 M	-5.55 M	Log GI (M) (DU-145): -5.77 M; Log GI (M) (SK-MEL-5): -5.64 M; Log GI (M) (SF-539): -5.72 M; Log GI (M) (HS-578T): -5.65 M; Log GI (M) (HOP-92): -5.70 M; Log GI (M) (T-47D): -5.66 M
CC[C@H](C)[C@H](NC(=O)[C@H](CCCCN)NC(=O)[C@H](CCCCN)NC(=O)[C@@H](NC(=O)[C@@H](NC(=O)[C@@H](N)Cc1c[nH]cn1)[C@@H](C)CC)[C@@H](C)CC)C(=O)N[C@@H](CCCNC(=N)N)C(=O)N[C@H](C(=O)N[C@@H](Cc1c[nH]c2ccccc12)C(=O)N[C@@H](Cc1ccc(O)cc1)C(=O)N[C@@H](CCCNC(=N)N)C(=O)N[C@@H](CCCCN)C(=O)N[C@@H](C)C(=O)N[C@@H](Cc1c[nH]c2ccccc12)C(=O)N[C@@H](Cc1c[nH]cn1)C(=O)N[C@H](C(=O)N[C@@H](CC(C)C)C(=O)NCC(=O)N[C@@H](CCCCN)C(=O)N[C@H](C(N)=O)C(C)C)C(C)C)[C@@H](C)O [Off2] (H-HIIKKIRTWYRKAWHVLGKV-NH2)	-5.30 M	-5.36 M	-4.88 M	-5.38 M	-5.07 M	-5.28 M	-5.02 M	-5.46 M	-5.19 M	-5.53 M	-5.69 M	-4.98 M	-4.96 M	-5.63 M	-5.29 M	-5.23 M	-5.48 M	-5.43 M	-5.06 M	-5.18 M	Log GI (M) (DU-145): -5.37 M; Log GI (M) (SK-MEL-5): -5.40 M; Log GI (M) (SF-539): -5.67 M; Log GI (M) (HS-578T): -5.45 M; Log GI (M) (HOP-92): -5.68 M; Log GI (M) (T-47D): -5.72 M
